Where a name gives a salt, the structure may show the parent alone.
Biological target: human active recombinant p38α-6His tagged (Homo sapiens, UniProt Q16539)
Experiment: P38 Alpha Enzyme Assay (AlphaScreen, biotinylated-ATF2 substrate);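 further: 0.5 nM final p38α, reaction started with ATP and run 45 min at 37 °C, phospho-ATF2 read by antibody-based AlphaScreen, background wells quenched with EDTA before ATP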
Type: biochemical
Details: p38 alpha enzyme inhibition; means of replicate determinations; 4 h pre-incubation at 37° C.; SD of assay 0.2-0.3 log units

human active recombinant p38α-6His tagged, sequence (Q16539 whole entry): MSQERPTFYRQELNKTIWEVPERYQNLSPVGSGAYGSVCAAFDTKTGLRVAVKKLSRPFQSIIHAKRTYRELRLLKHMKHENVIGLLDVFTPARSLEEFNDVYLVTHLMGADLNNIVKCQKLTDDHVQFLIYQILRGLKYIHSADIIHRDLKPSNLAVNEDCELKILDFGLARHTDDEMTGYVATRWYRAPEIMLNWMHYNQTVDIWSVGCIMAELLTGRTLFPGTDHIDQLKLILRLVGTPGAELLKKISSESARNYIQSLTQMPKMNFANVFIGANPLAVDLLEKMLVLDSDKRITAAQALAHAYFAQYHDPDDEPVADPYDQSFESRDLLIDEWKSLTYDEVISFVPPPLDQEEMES

SMILES	pIC50
Cc1ccc(C(=O)N2CCCC2)cc1-n1cc(Br)nc(N2CCN(CCN3CCCC3)C(c3ccccc3)C2)c1=O (centres unmarked) [Example 122, 1-[3-[5-Bromo-2-oxo-3-[3-phenyl-4-[2-(1-pyrrolidinyl)ethyl]-1-piperazinyl]-1(2H)-pyrazinyl]-4-methylbenzoyl]-pyrrolidine]	5.6
Cc1ccc(C(=O)NC2CC2)cc1-n1cc(C(N)=O)nc(NCc2ccccc2)c1=O [Example 106, 4-[5-[(Cyclopropylamino)carbonyl]-2-methylphenyl]-4,5-dihydro-5-oxo-6-[(phenylmethyl)amino]-2-pyrazinecarboxamide]	6.2
Cc1ccc(C(=O)NC2CC2)cc1-n1ccnc(NC(C)(C)c2ccccc2OC[C@@H](CO)N(C)C)c1=O [Example 306, N-Cyclopropyl-3-[3-{[1-(2-{[(2R)-2-(dimethylamino)-3-hydroxypropyl]oxy}phenyl)-1-methylethyl]amino}-2-oxopyrazin-1(2H)-yl]-4-methylbenzamide]	10.1
Cc1ccc(C(=O)NC2CC2)cc1-n1ccnc(NC2(c3ccccc3OCCN[C@H](C)CO)CC2)c1=O [Example 249, N-Cyclopropyl-3-[3-[[1-[2-[2-[[(1R)-2-hydroxy-1-methylethyl]amino]ethoxy]phenyl]cyclopropyl]amino]-2-oxo-1(2H)-pyrazinyl]-4-methyl-benzamide]	9.9
CNCCOc1c(F)cccc1C1(Nc2nccn(-c3cc(C(=O)NC4CC4)ccc3C)c2=O)CC1 [Example 287, N-Cyclopropyl-3-{3-[(1-{3-fluoro-2-[2-(methylamino)ethoxy]phenyl}cyclopropyl)amino]-2-oxopyrazin-1(2H)-yl}-4-methylbenzamide]	9.3
Cc1ccc(C(=O)NC2CC2)cc1-n1ccnc(NC2(c3ccccc3OCCNC3CCC3)CC2)c1=O [Example 248, 3-[3-[[1-[2-[2-(cyclobutylamino)ethoxy]phenyl]cyclopropyl]amino]-2-oxo-1(2H)-pyrazinyl]-N-Cyclopropyl-4-methyl-benzamide]	10
Cc1ccc(C(=O)NC2CC2)cc1-n1ccnc(NC(C)(C)c2ccccc2OCCCCNCC(F)(F)F)c1=O [Example 205, N-Cyclopropyl-4-methyl-3-[3-[[1-methyl-1-[2-[4-[(2,2,2-trifluoroethyl)amino]butoxy]phenyl]ethyl]amino]-2-oxo-1(2H)-pyrazinyl]-benzamide]	9
Cc1c(F)cc(C(=O)NC2CC2)cc1-n1ccnc(N[C@@H](c2ccccc2)[C@@H](C)CN2CCCCC2)c1=O [Example 329, N-Cyclopropyl-3-fluoro-4-methyl-5-[3-{[(1R,2S)-2-methyl-1-phenyl-3-piperidin-1-ylpropyl]amino}-2-oxopyrazin-1(2H)-yl]benzamide]	9.6
Cc1ccc(C(=O)NC2CC2)cc1-n1ccnc(NC(C)(C)Cc2ccccc2)c1=O [Example 65, N-Cyclopropyl-3-[3-[(1,1-dimethyl-2-phenylethyl)amino]-2-oxo-1(2H)-pyrazinyl]-4-methyl-benzamide]	7
Cc1ccc(C(=O)NC2CC2)cc1-n1ccnc(NCC(C)(C)C)c1=O [Example 49, N-Cyclopropyl-3-[3-[(2,2-dimethylpropyl)amino]-2-oxo-1(2H)-pyrazinyl]-4-methyl-benzamide]	6.9
CONC(=O)c1ccc(C)c(-n2ccnc(N[C@@H](c3ccccc3)[C@@H](C)CO)c2=O)c1 [Example 162, 3-[3-[[(1R,2R)-3-Hydroxy-2-methyl-1-phenylpropyl]amino]-2-oxo-1(2H)-pyrazinyl]-N-methoxy-4-methyl-benzamide, trifluoroacetate]	9.4
CNCCOc1ccccc1C(C)(C)Nc1nccn(-c2cc(C(=O)NCCO)ccc2C)c1=O [Example 228, N-(2-Hydroxyethyl)-4-methyl-3-[3-[[1-methyl-1-[2-[2-(methylamino)ethoxy]phenyl]ethyl]amino]-2-oxo-1(2H)-pyrazinyl]-benzamide]	6.8
CNCCOc1ccccc1C(C)(C)Nc1nccn(-c2cc(C(=O)NC3(C)CC3)ccc2C)c1=O [Example 227, 4-Methyl-N-(1-methylcyclopropyl)-3-[3-[[1-methyl-1-[2-[2-(methylamino)ethoxy]phenyl]ethyl]amino]-2-oxo-1(2H)-pyrazinyl]-benzamide]	8.5
Cc1ccc(C(=O)NC2CC2)cc1-n1ccnc(N[C@@H](c2ccccc2)[C@@H](C)CNC(C)(C)C)c1=O [Example 153, N-Cyclopropyl-3-[3-[[(1R,2S)-3-[(1,1-dimethylethyl)amino]-2-methyl-1-phenylpropyl]amino]-2-oxo-1(2H)-pyrazinyl]-4-methyl-benzamide]	9.2
CNCCOc1ccccc1C1(Nc2nccn(-c3cc(C(=O)NC4CC4)cc(F)c3C)c2=O)CC1 [Example 259, N-Cyclopropyl-3-fluoro-4-methyl-5-[3-[[1-[2-[2-(methylamino)ethoxy]phenyl]cyclopropyl]amino]-2-oxo-1(2H)-pyrazinyl]-benzamide]	10
Cc1ccc(C(=O)NC2CC2)cc1-n1cc(Cl)nc(NCc2ccccc2)c1=O [Example 109, 3-[5-Chloro-2-oxo-3-[(phenylmethyl)amino]-1(2H)-pyrazinyl]-N-cyclopropyl-4-methyl-benzamide]	7.2

SMILES	pIC50
Cc1c(F)cc(C(=O)NC2CC2)cc1-n1ccnc(NC2(c3ccccc3OCCN(C)CCO)CC2)c1=O [Example 315, N-Cyclopropyl-3-fluoro-5-[3-{[1-(2-{2-[(2-hydroxyethyl)(methyl)amino]ethoxy}phenyl)cyclopropyl]amino}-2-oxopyrazin-1(2H)-yl]-4-methylbenzamide]	10
CNCCOc1ccccc1C(C)(C)Nc1nccn(-c2cc(C(=O)NC3CCC3)ccc2C)c1=O [Example 224, N-Cyclobutyl-4-methyl-3-[3-[[1-methyl-1-[2-[2-(methylamino)ethoxy]phenyl]ethyl]amino]-2-oxo-1(2H)-pyrazinyl]-benzamide]	8.4
Cc1ccc(C(=O)NC2CC2)cc1-n1ccnc(N2CCCCC2)c1=O [Example 76, N-Cyclopropyl-4-methyl-3-[2-oxo-3-(1-pipendinyl)-1(2H)-pyrazinyl]-benzamide]	6.8
Cc1ccc(C(=O)NC2CC2)cc1-n1ccnc(NCCCc2ccccc2)c1=O [Example 36, N-Cyclopropyl-4-methyl-3-[2-oxo-3-[(3-phenylpropyl)amino]-1(2H)-pyrazinyl]-benzamide]	6.8
Cc1ccc(C(=O)NC2CC2)cc1-n1ccnc(NCCCN2CCOCC2)c1=O [Example 6, N-Cyclopropyl-4-methyl-3-[3-[[3-(4-morpholinyl)propyl]amino]-2-oxo-1(2H)-pyrazinyl]-benzamide]	6.5
CNC[C@@H](O)COc1ccccc1C1(Nc2nccn(-c3cc(C(=O)NC4CC4)ccc3C)c2=O)CC1 [Example 301, N-Cyclopropyl-3-[3-{[1-(2-{[(2R)-2-hydroxy-3-(methylamino)propyl]oxy}phenyl)cyclopropyl]amino}-2-oxopyrazin-1(2H)-yl]-4-methylbenzamide]	10.1
Cc1ccc(C(=O)NC2CC2)cc1-n1ccnc(N[C@@H](c2ccccc2)C2CCN(C(=O)OCc3ccccc3)CC2)c1=O [Example 102, 4-[(R)-[[4-[5-[(Cyclopropylamino)carbonyl]-2-methylphenyl]-3,4-dihydro-3-oxopyrazinyl]amino]phenylmethyl]-1-piperidinecarboxylic acid, phenylmethyl ester]	6.3
Cc1cccc([C@H](Nc2nccn(-c3cc(C(=O)NC4CC4)ccc3C)c2=O)[C@@H](C)CO)c1 [Example 273, N-Cyclopropyl-3-[3-[[(1R,2R)-3-hydroxy-1-(3-methylphenyl)-2-methylpropyl]amino]-2-oxo-1(2H)-pyrazinyl]-4-methyl-benzamide]	9
Cc1c(F)cc(C(=O)NC2CC2)cc1-n1ccnc(NC(C)(C)c2ccccc2OCCNCCO)c1=O [Example 253, N-Cyclopropyl-3-fluoro-5-[3-[[1-[2-[2-[(2-hydroxyethyl)amino]ethoxy]phenyl]-1-methylethyl]amino]-2-oxo-1(2H)-pyrazinyl]-4-methyl-benzamide]	10.2
Cc1ccc(C(=O)NC2CC2)cc1-n1ccnc(N(CCN(C)C)Cc2ccccc2)c1=O [Example 121, N-Cyclopropyl-3-[3-[[2-(dimethylamino)ethyl](phenylmethyl)amino]-2-oxo-1(2H)-pyrazinyl]-4-methyl-benzamide]	6
Cc1ccc(C(=O)NC2CC2)cc1-n1cc(Cl)nc(N2CCN(C)CC2)c1=O [Example 107, 3-[5-Chloro-3-(4-methyl-1-piperazinyl)-2-oxo-1(2H)-pyrazinyl]-N-cyclopropyl-4-methyl-benzamide]	6.1
Cc1ccc(C(=O)NC2CC2)cc1-n1ccnc(NCc2ccccc2-c2ccccc2)c1=O [Example 44, 3-[3-[([1,1′-Biphenyl]-2-ylmethyl)amino]-2-oxo-1(2H)-pyrazinyl]-N-cyclopropyl-4-methyl-benzamide]	7.6
CCONC(=O)c1ccc(C)c(-n2ccnc(NC(C)(C)c3ccccc3OCCNC)c2=O)c1 [Example 222, N-Ethoxy-4-methyl-3-[3-[[1-methyl-1-[2-[2-(methylamino)ethoxy]phenyl]ethyl]amino]-2-oxo-1(2H)-pyrazinyl]-benzamide]	9
Cc1ccc(C(=O)NC2CC2)cc1-n1ccnc(NC[C@@H](O)c2ccccc2)c1=O [Example 56, N-Cyclopropyl-3-[3-[[(2S)-2-hydroxy-2-phenylethyl]amino]-2-oxo-1(2H)-pyrazinyl]-4-methyl-benzamide]	6.4
Cc1cccc(C2CCCN2c2nccn(-c3cc(C(=O)NC4CC4)ccc3C)c2=O)c1 (centres unmarked) [Example 96, N-Cyclopropyl-4-methyl-3-[3-[2-(3-methylphenyl)-1-pyrrolidinyl]-2-oxo-1(2H)-pyrazinyl]-benzamide]	8.5
CCNCCOc1ccccc1C(C)(C)Nc1nccn(-c2cc(C(=O)NC3CC3)ccc2Cl)c1=O [Example 333, 4-Chloro-N-cyclopropyl-3-[3-[(1-{2-[2-(ethylamino)ethoxy]phenyl}-1-methylethyl)amino]-2-oxopyrazin-1(2H)-yl]benzamide]	9.5

From patent US20120214822A1 (ASTRAZENECA AB, priority 2007, published 2012)
